These results are taken from article PMC8147976, “Partitioning and Spatial Distribution of Drugs in Ocular Surface Tissues” (Pharmaceutics, 2021).

Where two headings read alike, the source gives them in different places.

A short description of data set [1]: Drug distribution in porcine ocular tissues ex vivo, comparison across tissues. The data set is classed as in vitro ADME. The note with it: for time to reach equilibrium in tissue: porcine tissues ex vivo, Figure 1. The text has this: Cornea. […] Bulbar conjunctiva.
For data set [2] the following is noted: for ratio of signal against twice the signal of propranolol, Epithelium 10 min / ratio of signal against twice the signal of propranolol, Epithelium 60 min: rabbit corneal epithelium; for ratio of signal against twice the signal of propranolol, Epithelium 10 min / ratio of signal against twice the signal of propranolol, Stroma 10 min: 10 min after eye drop; for ratio of signal against twice the signal of propranolol, Epithelium 10 min / ratio of signal against twice the signal of propranolol, Epithelium 60 min / ratio of signal against twice the signal of propranolol, Stroma 10 min / ratio of signal against twice the signal of propranolol, Stroma 60 min: MALDI-IMS; for ratio of signal against twice the signal of propranolol, Epithelium 60 min / ratio of signal against twice the signal of propranolol, Stroma 60 min: 60 min after eye drop; for ratio of signal against twice the signal of propranolol, Stroma 10 min / ratio of signal against twice the signal of propranolol, Stroma 60 min: rabbit corneal stroma. The procedure:
Three months old female New Zealand White rabbits, 2.5–2.8 kg (Envigo Laboratories, Blackthron, Bicester, UK), were used in the study to determine the distribution of drugs in the cornea. […] The rabbits were sacrificed by injecting a lethal dose (2 mL/kg) of pentobarbital (Mebunat vet 60 mg/mL; Orion Pharma, Finland) into the marginal ear vein at 10, 20, and 60 min post-dosing. The eyes were removed and snap-frozen with liquid nitrogen in plastic tubes and stored at −80 °C until sample preparation and analysis with MALDI-IMS.
The frozen eyes were mounted onto a chuck using an optimal cutting temperature compound (Sakura Finetek, Torrance, CA, USA). The samples were sectioned to 20 μm or 35 μm thickness at −20 °C on a Leica CM Cryostat (S3050, Leica Microsystems GmbH, Wetzlar, Germany) and collected on a cryo-film (3C16UF, SECTION-LAB Co. Ltd., Yokohama, Japan) by a modified Kawamoto method. The film was subsequently mounted onto a microscope glass slide using a double-sided copper tape, and the sample slides were dried in a lyophilization chamber. The slides were washed twice with 50 mM ammonium formate for 10 s and dried in a vacuum desiccator. The sample slides contained sections from three eyes from the eye drop experiment and three blanks. The matrix α-cyano-4hydroxycinnamic acid (CHCA) (7 mg/mL in 50% acetonitrile containing 1% trifluoro acetic acid) (Sigma-Aldrich, St. Louis, MO, USA) was added via spray deposition using 10 passes, flow rate of 100 μL/min, temperature of 77 °C, track spacing of 2.5 mm, and velocity of 1300 mm/min (TM-Sprayer, HTX Technologies, Chapel Hill, NC, USA).
Fourier transform-ion cyclotron resonance (FT-ICR) MALDI-IMS was performed using a Bruker 7T SolariX XR mass spectrometer (Bruker Daltonics, Bremen, Germany) at 50 μm spatial resolution for the corneal area and 150 μm spatial resolution for the rest of the eye. […] MALDI images of each signal were plotted with a 5 mDa mass window using flexImaging^TM software (v4.1, Bruker Daltonics, Bremen, Germany) with datasets normalized by the RMS method and pixel interpolation.
The data for calculation was obtained by taking six crosscuts through the cornea; no normalization was used.

For data set [3] the following is noted: cited from earlier work.
On the set-up of data set [4]: method as in PMID 3246568. Particulars: inferior drug insert application, rabbit; ref [56]; cited from earlier work.
For data set [5] the following is noted: de-epithelized vs intact cornea; ref [29],[46]; cited from earlier work.
The conditions of data set [6]: ex vivo, 180 min epithelial side exposure, donor 2 ng/µL.
The conditions of data set [7]: ex vivo, 180 min epithelial side exposure, donor 2 ng/µL. The source holds these as a separate data set.
The nature of data set [8]: in vitro. The note with it: pig, pH 7.4.
The conditions of data set [9]: ex vivo, 180 min epithelial side exposure, donor 2 ng/µL. This is another data set of the same source.
Setting [10] is: n-octanol/buffer solution distribution coefficient at pH 7.4, ref [10],[44].

`CC(C)(C)NC[C@H](O)COc1nsnc1N1CCOCC1` [Timolol]: in data set [1], the “time to reach equilibrium in tissue” value was “≈ 30 min”. Further, in data set [2], the “ratio of signal against twice the signal of propranolol, Epithelium 10 min” value was 0.19 ± 0.02; the “ratio of signal against twice the signal of propranolol, Epithelium 60 min” value amounted to 0.25 ± 0.08; the “ratio of signal against twice the signal of propranolol, Stroma 10 min” value came out at 0.36 ± 0.01; the “ratio of signal against twice the signal of propranolol, Stroma 60 min” value came to 0.45 ± 0.17. Moreover, the “MALDI-IMS signal in corneal tissues and aqueous humor” value in data set [2] (rabbit, in vivo) is reported as “below the limit of detection in many pixels”. For the same compound, in [3] (setting [10]), the “Log D7.4” value was −1.43. Besides, in data set [4], the “timolol levels in the inferior relative to the superior cornea” value is given as 4–6 fold.

Take `CC(C)(C)NCC(O)COc1cccc2c1CC(O)C(O)C2` (stereo not drawn) [Nadolol]: the “time to reach equilibrium in tissue” value in data set [1] was “≈ 30 min”. Also, the “Log D7.4” value in data set [3] (setting [10]) is recorded as −1.54.

`CC(C)NCC(O)COc1cccc2ccccc12` (stereo not drawn) [Propranolol]: the “time to reach equilibrium in tissue” value in data set [1] is on record as “≈ 60 min”. For the same compound, the “change of permeability in de-epithelized corneas” value in data set [5] is listed as “only modest or no changes”. Moreover, in data set [6], the “concentration in corneal epithelium” value was 9.46 ng/mg tissue. The “MALDI-IMS signal intensity in corneal tissues and aqueous humor” value in [2] (rabbit, in vivo) was “highest intensity”. The compound further yielded a concentration in conjunctiva in data set [7] of 1.24 ng/mg. The Kp at 3 h, 2 µg/mL in data set [8] came out at 4.7. In addition, in data set [9], the “concentration in corneal stroma” value is given as 0.83 ng/mg.

For `CC(C)NCC(O)COc1cccc2[nH]ccc12` (stereo not drawn) [Pindolol], in data set [2], the “ratio of signal against twice the signal of propranolol, Epithelium 10 min” value stood at 0.21 ± 0.01; the “ratio of signal against twice the signal of propranolol, Epithelium 60 min” value was 0.356± 0.08; the “ratio of signal against twice the signal of propranolol, Stroma 10 min” value worked out at 0.57 ± 0.00; the “ratio of signal against twice the signal of propranolol, Stroma 60 min” value was found to be 0.83 ± 0.13. Moreover, in [3] (as listed in Table S2), the “Log D7.4” value was 0.06. The “Log D7.4” value in data set [3] (setting [10]) is given as −0.5.

Regarding `COCCc1ccc(OCC(O)CNC(C)C)cc1` (stereo not drawn) [Metoprolol], in data set [3] (as listed in Table S2), the “Log D7.4” value is −0.5.

For the compound `CC(C)NCC(O)COc1ccc(CC(N)=O)cc1` (stereo not drawn) [Atenolol], in data set [1] (ex vivo), the “difference in concentration between corneal epithelium, corneal stroma and conjunctiva” value is recorded as “two-fold”. In data set [1], the “time to reach equilibrium in tissue” value is on record as “≈ 30 min”.

Regarding `CC(C)NCC(O)COc1ccc(CCOCC2CC2)cc1` (stereo not drawn) [Betaxolol], the “time to reach equilibrium in tissue” value in data set [1] is listed as “≈ 60 min”. For the same compound, the “change of permeability in de-epithelized corneas” value in data set [5] is given as “only modest or no changes”. The “Log D7.4” value in [3] (as listed in Table S2) and in [3] (setting [10]) was 0.43 throughout.
